Assay results reported in ChEMBL document CHEMBL1770126, “Molecular probes for the A2A adenosine receptor based on a pyrazolo[4,3-e][1,2,4]triazolo[1,5-c]pyrimidin-5-amine scaffold” (Bioorg Med Chem Lett, 2011).

Assays:
Type in all cases: cell-based
Adenosine receptor A2a = Adenosine receptor A2a (Homo sapiens, UniProt P29274); test: Displacement of [3H]CGS21680 from human recombinant adenosine A2A receptor expressed in HEK293 cells after 60 mins by liquid scintillation counting
[1] = biological target: T1, Adenosine receptor A3 (Homo sapiens) (UniProt P0DMS8); test: Displacement of [125I]I-AB-MECA from human recombinant adenosine A3 receptor expressed in CHO cells at 10 uM after 60 mins by gamma scintillation counting
T1 sequence (whole entry): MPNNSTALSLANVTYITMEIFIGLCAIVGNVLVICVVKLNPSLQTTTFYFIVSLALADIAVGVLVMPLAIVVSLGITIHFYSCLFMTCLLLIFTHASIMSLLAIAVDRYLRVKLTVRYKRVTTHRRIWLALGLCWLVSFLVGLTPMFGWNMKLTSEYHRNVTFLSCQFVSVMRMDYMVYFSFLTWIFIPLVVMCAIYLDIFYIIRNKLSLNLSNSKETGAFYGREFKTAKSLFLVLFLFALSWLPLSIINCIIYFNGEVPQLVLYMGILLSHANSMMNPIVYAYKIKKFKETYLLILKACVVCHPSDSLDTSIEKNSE

[2] = biological target: T2, Adenosine receptor A1 (Homo sapiens) (UniProt P30542); test: Displacement of [3H]DPCPX from human recombinant adenosine A1 receptor expressed in CHO cells at 10 uM after 60 mins by liquid scintillation counting
T2 sequence (whole entry): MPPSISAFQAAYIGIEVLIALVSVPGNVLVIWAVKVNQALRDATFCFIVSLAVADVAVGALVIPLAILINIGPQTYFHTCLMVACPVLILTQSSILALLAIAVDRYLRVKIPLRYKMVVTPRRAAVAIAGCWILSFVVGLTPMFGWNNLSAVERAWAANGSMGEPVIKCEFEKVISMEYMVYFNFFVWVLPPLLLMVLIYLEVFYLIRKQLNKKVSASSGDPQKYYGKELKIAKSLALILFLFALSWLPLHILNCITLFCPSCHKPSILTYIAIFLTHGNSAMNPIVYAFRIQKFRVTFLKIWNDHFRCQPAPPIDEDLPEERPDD

Adenosine receptor A1 = biological target: T3, Adenosine receptor A1 (Homo sapiens, UniProt P30542); test: Displacement of [3H]DPCPX from human recombinant adenosine A1 receptor expressed in CHO cells after 60 mins by liquid scintillation counting
T3 sequence (P30542 whole entry): T2 sequence (whole entry)

Adenosine receptor A3 = biological target: T4, Adenosine receptor A3 (Homo sapiens, UniProt P0DMS8); test: Displacement of [125I]I-AB-MECA from human recombinant adenosine A3 receptor expressed in CHO cells after 60 mins by gamma scintillation counting
T4 sequence (P0DMS8 whole entry): T1 sequence (whole entry)

Chain of Adenosine receptor A2a (P29274 whole entry): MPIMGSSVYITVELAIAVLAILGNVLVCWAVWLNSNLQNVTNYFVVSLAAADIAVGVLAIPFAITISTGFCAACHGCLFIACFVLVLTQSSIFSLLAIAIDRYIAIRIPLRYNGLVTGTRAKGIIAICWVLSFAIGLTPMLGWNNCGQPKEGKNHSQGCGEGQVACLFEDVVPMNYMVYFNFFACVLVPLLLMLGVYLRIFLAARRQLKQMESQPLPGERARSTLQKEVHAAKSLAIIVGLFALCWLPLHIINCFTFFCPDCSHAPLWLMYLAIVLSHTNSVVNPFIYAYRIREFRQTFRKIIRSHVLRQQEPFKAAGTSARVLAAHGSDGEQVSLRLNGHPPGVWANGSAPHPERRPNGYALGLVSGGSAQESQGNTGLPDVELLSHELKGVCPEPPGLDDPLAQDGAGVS

| SMILES | Ki (Adenosine receptor A2a) | inhibition [1] | inhibition [2] | Ki (Adenosine receptor A1) | Ki (Adenosine receptor A3) |
| --- | --- | --- | --- | --- | --- |
| N=c1ccc2c(-c3ccc(C(=O)NCCNC(=O)COc4ccc(CCCn5ncc6c5nc(N)n5nc(-c7ccco7)nc65)cc4)cc3C(=O)O)c3ccc(N)c(S(=O)(=O)O)c3oc-2c1S(=O)(=O)O | 111 nM | 4% | 20% | – | – |
| COc1ccc(CCCn2ncc3c2nc(N)n2nc(-c4ccco4)nc32)cc1 | – | – | 35% | – | – |
| CC(=O)NCCn1cc(CCCCC(=O)NCCNC(=O)COc2ccc(CCCn3ncc4c3nc(N)n3nc(-c5ccco5)nc43)cc2)nn1 | 220 nM | – | – | 1700 nM | 302 nM |
| CN(C)c1ccc2c(-c3ccc(C(=O)NCCNC(=O)COc4ccc(CCCn5ncc6c5nc(N)n5nc(-c7ccco7)nc65)cc4)cc3C(=O)[O-])c3ccc(=[N+](C)C)cc-3oc2c1 | 357 nM | 24% | 7% | – | – |
| COC(=O)COc1ccc(CCCn2ncc3c2nc(N)n2nc(-c4ccco4)nc32)cc1 | 96 nM | 50% | – | 4840 nM | – |
| Nc1nc2c(cnn2CCCc2ccc(O)cc2)c2nc(-c3ccco3)nn12 | – | – | – | 4440 nM | – |

Continued, values first:

| Ki (Adenosine receptor A2a) | inhibition [1] | inhibition [2] | Ki (Adenosine receptor A1) | Ki (Adenosine receptor A3) | SMILES |
| --- | --- | --- | --- | --- | --- |
| 15.1 nM | 28% | – | – | – | Nc1nc2c(cnn2CCCc2ccc(OCC(=O)NCCNCCNC(=O)CCCCCNC(=O)COc3ccc(/C=C/C4=[N+]5C(=Cc6ccc(-c7ccc[nH]7)n6[B-]5(F)F)C=C4)cc3)cc2)c2nc(-c3ccco3)nn12 |
| 75.4 nM | – | – | 1100 nM | 1280 nM | C#CCCCCC(=O)NCCNC(=O)COc1ccc(CCCn2ncc3c2nc(N)n2nc(-c4ccco4)nc32)cc1 |
| 10.2 nM | 29% | – | 1700 nM | – | Nc1nc2c(cnn2CCCc2ccc(OCC(=O)O)cc2)c2nc(-c3ccco3)nn12 |
| 53.6 nM | – | – | 1000 nM | 1320 nM | Nc1nc2c(cnn2CCCc2ccc(OCCCF)cc2)c2nc(-c3ccco3)nn12 |
| 10.7 nM | – | 20% | – | 3290 nM | NCCNCCNC(=O)COc1ccc(CCCn2ncc3c2nc(N)n2nc(-c4ccco4)nc32)cc1 |
| 6.8 nM | – | – | 1270 nM | 3970 nM | NCCNC(=O)COc1ccc(CCCn2ncc3c2nc(N)n2nc(-c4ccco4)nc32)cc1 |
